This is an account of results in patent publication US11181533B2, “Diagnosing and treating Alzheimer's disease” (DIGNITY HEALTH, priority 2013, dated 2021).

The test system of assay [1] is SAMP8 mice and APP transgenic mice. Conditions: intranasal administration, cited from earlier work.
Another assay has as its system Aβ induced cell death. Kind of assay: Protection against Aβ induced cell death. The assay is classed as cell-based. Conditions: by enhancing mitochondrial function.

Like-named read-outs stand apart in the source and are kept apart here. No end group written: not given here.

As to “Pituitary Adenylate Cyclase Activating Polypeptide (HSDGIFTDSYSRYRKQMAVKKYLAAVLGKRYKQRVKNK; ends and bridges not checked; UniProt P18509 132-169, looked up) [PACAP, small peptide with either 38 amino acids in full length form (PACAP-38), or 27 amino acids in short form (PACAP-27); neurotrophin]”, the Novel object recognition entry in assay [1] (APP transgenic mice) and in assay [1] (SAMP8 mice) was “enhances Novel object recognition” in each case. The “protection against Aβ induced cell death” value in the assay on Aβ induced cell death is “protects against Aβ induced cell death”.
